Legend:
Assay in all cases: KINOMEscan competition binding
Conditions in all cases: compound 10.0 µM
MAP3K1 (human) = MAP3K1 (human) (UniProt Q13233)
CDC2L2 (human) = CDC2L2 (human) (UniProt Q9UQ88)
PRKCD (human) = PRKCD (human) (UniProt Q05655)
GSG2 (human) = GSG2 (human) (UniProt Q8TF76)
RPS6KA5 KD1 (human) = RPS6KA5 KD1 (human) (UniProt O75582)
INSRR (human) = INSRR (human) (UniProt P14616)
[1] = tested on: ABL1 (human), P00519 [H396P]
EPHA3 (human) = EPHA3 (human) (UniProt P29320)
SRMS (human) = SRMS (human) (UniProt Q9H3Y6)
MAP3K6 (human) = MAP3K6 (human) (UniProt O95382)
TLK1 (human) = TLK1 (human) (UniProt Q9UKI8)
CDK19 (human) = CDK19 (human) (UniProt Q9BWU1)
SGK1 (human) = SGK1 (human) (UniProt O00141)
FLT1 (human) = FLT1 (human) (UniProt P17948)
LIMK2 (human) = LIMK2 (human) (UniProt P53671)
[2] = tested on: FLT3 (human), P36888 [R834Q]
PKMYT1 (human) = PKMYT1 (human) (UniProt Q99640)
RPS6KA2 KD2 (human) = RPS6KA2 KD2 (human) (UniProt Q15349)
SIK2 (human) = SIK2 (human) (UniProt Q9H0K1)
DAPK1 (human) = DAPK1 (human) (UniProt P53355)
MAST1 (human) = MAST1 (human) (UniProt Q9Y2H9)
CAMK2D (human) = CAMK2D (human) (UniProt Q13557)
LATS1 (human) = LATS1 (human) (UniProt O95835)
MAP2K6 (human) = MAP2K6 (human) (UniProt P52564)
PRKCE (human) = PRKCE (human) (UniProt Q02156)
WNK3 (human) = WNK3 (human) (UniProt Q9BYP7)
CSNK2A1 (human) = CSNK2A1 (human) (UniProt P68400)
INSR (human) = INSR (human) (UniProt P06213)
RPS6KA3 KD2 (human) = RPS6KA3 KD2 (human) (UniProt P51812)
LTK (human) = LTK (human) (UniProt P29376)
ERBB2 (human) = ERBB2 (human) (UniProt P04626)
ABL1 (human) = ABL1 (human) (UniProt P00519)
CSK (human) = CSK (human) (UniProt P41240)
[3] = tested on: EGFR (human), P00533 [747-751 del / S ins]
TXK (human) = TXK (human) (UniProt P42681)
[4] = molecular target: JAK3 JH1 catalytic (human) (UniProt P52333)
CDK15 (human) = CDK15 (human) (UniProt Q96Q40)
MUSK (human) = MUSK (human) (UniProt O15146)
TNK1 (human) = TNK1 (human) (UniProt Q13470)
[5] = tested on: EGFR (human), P00533 [T790M]

Chain of RPS6KA5 KD1 (human) (O75582 whole entry, looked up): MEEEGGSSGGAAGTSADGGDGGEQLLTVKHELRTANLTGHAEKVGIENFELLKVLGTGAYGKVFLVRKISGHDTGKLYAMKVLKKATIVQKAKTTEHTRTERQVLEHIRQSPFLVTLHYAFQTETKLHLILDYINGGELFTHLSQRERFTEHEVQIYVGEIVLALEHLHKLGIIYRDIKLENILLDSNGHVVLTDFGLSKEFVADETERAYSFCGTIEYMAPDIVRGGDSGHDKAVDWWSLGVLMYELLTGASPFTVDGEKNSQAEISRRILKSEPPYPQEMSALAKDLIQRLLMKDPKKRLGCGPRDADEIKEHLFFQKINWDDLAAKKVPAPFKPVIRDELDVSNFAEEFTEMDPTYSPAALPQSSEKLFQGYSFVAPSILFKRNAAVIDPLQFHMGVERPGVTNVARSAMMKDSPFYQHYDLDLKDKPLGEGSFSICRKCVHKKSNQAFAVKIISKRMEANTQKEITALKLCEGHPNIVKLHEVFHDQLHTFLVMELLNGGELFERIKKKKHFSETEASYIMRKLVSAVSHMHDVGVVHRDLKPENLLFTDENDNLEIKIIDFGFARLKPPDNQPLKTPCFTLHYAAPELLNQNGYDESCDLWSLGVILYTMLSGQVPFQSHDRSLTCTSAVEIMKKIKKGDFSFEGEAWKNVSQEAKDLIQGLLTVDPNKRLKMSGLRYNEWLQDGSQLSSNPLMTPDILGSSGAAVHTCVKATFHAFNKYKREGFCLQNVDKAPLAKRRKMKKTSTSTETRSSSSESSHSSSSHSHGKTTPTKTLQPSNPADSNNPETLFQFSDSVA
Chain of RPS6KA3 KD2 (human) (P51812 whole entry, looked up): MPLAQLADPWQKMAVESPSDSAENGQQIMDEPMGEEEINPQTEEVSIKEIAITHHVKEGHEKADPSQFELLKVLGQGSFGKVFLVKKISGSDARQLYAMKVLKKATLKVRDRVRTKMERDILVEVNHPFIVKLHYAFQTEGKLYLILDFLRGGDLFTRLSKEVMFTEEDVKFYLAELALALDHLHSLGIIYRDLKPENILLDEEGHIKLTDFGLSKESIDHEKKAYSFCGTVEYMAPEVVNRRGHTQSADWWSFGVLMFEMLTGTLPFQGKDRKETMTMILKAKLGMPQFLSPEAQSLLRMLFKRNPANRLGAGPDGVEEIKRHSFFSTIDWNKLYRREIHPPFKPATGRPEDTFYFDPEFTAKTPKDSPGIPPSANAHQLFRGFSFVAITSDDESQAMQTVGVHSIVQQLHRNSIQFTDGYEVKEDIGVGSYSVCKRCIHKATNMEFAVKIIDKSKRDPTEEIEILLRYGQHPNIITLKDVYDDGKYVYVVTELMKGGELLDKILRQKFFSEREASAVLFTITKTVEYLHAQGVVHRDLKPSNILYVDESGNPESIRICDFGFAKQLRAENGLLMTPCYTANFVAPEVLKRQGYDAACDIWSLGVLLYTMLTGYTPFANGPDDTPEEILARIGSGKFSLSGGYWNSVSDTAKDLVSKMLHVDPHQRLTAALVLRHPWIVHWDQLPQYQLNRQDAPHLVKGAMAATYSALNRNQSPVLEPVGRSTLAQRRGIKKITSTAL
Chain of PRKCD (human) (Q05655 whole entry, looked up): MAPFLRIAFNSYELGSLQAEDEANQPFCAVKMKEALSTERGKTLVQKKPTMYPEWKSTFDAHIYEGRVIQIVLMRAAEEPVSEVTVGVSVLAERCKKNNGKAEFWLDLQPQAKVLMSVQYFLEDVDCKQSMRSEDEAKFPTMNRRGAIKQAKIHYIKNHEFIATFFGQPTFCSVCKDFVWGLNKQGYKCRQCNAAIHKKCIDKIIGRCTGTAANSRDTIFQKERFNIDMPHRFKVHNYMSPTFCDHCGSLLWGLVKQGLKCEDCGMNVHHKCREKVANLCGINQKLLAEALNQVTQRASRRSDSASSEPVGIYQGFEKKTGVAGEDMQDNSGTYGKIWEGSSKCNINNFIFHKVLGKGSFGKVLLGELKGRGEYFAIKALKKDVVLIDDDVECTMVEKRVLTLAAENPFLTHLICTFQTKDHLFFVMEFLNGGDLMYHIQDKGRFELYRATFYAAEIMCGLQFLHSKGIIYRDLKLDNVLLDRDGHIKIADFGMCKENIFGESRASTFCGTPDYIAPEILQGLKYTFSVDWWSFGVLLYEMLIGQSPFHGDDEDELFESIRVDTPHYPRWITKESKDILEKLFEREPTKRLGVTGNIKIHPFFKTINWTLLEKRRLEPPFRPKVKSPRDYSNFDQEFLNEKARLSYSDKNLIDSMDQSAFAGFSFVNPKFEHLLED
Chain of RPS6KA2 KD2 (human) (Q15349 whole entry, looked up): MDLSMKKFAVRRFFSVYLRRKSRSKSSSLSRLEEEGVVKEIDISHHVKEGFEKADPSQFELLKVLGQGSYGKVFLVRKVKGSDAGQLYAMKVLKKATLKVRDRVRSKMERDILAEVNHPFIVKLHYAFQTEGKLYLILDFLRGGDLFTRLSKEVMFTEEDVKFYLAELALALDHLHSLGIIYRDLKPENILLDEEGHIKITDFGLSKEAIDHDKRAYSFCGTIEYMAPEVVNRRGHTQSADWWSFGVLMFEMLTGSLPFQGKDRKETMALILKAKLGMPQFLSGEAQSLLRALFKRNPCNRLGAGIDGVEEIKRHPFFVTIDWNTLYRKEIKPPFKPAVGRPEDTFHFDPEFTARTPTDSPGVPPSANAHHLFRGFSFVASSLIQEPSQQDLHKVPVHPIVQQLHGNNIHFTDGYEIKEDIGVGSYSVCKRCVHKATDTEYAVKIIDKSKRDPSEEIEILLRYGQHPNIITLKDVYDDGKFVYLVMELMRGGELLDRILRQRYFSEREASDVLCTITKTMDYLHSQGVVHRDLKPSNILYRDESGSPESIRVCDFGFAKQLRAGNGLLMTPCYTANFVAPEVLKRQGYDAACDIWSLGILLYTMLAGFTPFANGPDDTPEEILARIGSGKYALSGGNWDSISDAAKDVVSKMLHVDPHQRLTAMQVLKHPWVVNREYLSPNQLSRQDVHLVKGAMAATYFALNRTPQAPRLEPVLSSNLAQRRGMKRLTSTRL
Chain of MAP3K6 (human) (O95382 whole entry, looked up): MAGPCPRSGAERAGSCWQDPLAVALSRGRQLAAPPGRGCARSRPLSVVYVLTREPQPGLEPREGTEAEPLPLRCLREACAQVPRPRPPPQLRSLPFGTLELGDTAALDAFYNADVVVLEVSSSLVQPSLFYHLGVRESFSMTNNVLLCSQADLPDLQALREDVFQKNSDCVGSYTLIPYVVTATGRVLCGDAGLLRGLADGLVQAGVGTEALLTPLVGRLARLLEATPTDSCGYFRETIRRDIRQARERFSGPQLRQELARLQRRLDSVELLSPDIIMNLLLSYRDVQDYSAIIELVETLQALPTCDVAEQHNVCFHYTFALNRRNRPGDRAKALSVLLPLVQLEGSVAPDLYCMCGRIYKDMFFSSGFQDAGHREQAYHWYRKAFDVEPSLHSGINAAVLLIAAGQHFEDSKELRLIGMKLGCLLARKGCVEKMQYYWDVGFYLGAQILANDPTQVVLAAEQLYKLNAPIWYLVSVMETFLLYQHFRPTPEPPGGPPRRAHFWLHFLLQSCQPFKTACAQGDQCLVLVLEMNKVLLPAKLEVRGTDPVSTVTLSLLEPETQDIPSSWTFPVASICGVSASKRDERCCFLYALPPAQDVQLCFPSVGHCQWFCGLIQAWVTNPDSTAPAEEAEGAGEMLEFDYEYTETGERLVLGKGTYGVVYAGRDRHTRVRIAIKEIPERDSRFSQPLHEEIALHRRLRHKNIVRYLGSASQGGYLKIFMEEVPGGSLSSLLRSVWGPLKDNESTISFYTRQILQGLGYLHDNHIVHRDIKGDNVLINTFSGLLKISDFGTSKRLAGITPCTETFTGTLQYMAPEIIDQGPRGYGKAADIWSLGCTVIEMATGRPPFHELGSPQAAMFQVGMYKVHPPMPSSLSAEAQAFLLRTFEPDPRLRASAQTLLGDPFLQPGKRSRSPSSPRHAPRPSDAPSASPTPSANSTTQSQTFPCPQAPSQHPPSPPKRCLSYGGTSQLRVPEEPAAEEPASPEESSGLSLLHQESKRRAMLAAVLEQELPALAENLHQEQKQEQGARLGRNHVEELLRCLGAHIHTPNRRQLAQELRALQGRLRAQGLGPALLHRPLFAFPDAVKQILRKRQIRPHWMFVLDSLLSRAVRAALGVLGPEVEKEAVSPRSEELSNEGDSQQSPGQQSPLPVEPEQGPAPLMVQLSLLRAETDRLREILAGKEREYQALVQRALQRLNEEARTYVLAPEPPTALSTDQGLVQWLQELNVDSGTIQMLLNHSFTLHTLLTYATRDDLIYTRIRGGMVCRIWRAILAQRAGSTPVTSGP
Chain of CSNK2A1 (human) (P68400 whole entry, looked up): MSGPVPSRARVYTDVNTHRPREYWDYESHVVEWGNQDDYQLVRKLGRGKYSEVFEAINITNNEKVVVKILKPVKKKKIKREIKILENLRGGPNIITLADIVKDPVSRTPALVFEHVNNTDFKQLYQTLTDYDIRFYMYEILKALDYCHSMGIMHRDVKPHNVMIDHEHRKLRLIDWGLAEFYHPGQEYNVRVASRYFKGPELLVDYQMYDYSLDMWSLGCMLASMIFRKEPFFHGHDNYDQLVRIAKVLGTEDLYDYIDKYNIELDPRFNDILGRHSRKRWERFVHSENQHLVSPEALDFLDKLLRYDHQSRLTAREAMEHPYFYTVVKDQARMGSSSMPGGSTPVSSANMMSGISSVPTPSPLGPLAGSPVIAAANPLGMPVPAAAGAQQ
Chain of MAP2K6 (human) (P52564 whole entry, looked up): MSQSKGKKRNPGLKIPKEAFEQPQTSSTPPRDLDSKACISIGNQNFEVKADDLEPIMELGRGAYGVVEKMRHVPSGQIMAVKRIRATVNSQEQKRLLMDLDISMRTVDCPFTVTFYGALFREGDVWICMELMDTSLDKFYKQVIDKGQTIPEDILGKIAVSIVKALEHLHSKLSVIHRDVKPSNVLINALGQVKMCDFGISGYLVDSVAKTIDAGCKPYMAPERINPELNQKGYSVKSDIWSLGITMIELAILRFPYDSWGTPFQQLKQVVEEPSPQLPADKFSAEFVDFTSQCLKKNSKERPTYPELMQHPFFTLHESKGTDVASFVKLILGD

| SMILES | kinase still bound, per cent of control (MAP3K1 (human)) | kinase still bound, per cent of control (CDC2L2 (human)) | kinase still bound, per cent of control (PRKCD (human)) | kinase still bound, per cent of control (GSG2 (human)) | kinase still bound, per cent of control (RPS6KA5 KD1 (human)) | kinase still bound, per cent of control (INSRR (human)) | kinase still bound, per cent of control (EPHA3 (human)) | kinase still bound, per cent of control (SRMS (human)) | kinase still bound, per cent of control (MAP3K6 (human)) | kinase still bound, per cent of control (TLK1 (human)) | kinase still bound, per cent of control (CDK19 (human)) | kinase still bound, per cent of control (SGK1 (human)) | kinase still bound, per cent of control (FLT1 (human)) | kinase still bound, per cent of control (LIMK2 (human)) | kinase still bound, per cent of control [2] | kinase still bound, per cent of control (PKMYT1 (human)) | kinase still bound, per cent of control (RPS6KA2 KD2 (human)) | kinase still bound, per cent of control (SIK2 (human)) | kinase still bound, per cent of control (DAPK1 (human)) | kinase still bound, per cent of control (MAST1 (human)) | further results |
| --- | --- | --- | --- | --- | --- | --- | --- | --- | --- | --- | --- | --- | --- | --- | --- | --- | --- | --- | --- | --- | --- |
| N#CCNC(=O)c1ccc(-c2ccnc(Nc3ccc(N4CCOCC4)cc3)n2)cc1 | 92% | 58% | 54% | 67% | 100% | 100% | 69% | 100% | 100% | 59% | 100% | 2.8% | 55% | 68% | 100% | 100% | 71% | 14% | 7% | 42% | kinase still bound, per cent of control [1]: 65%; kinase still bound, per cent of control (CAMK2D (human)): 34%; kinase still bound, per cent of control (LATS1 (human)): 100%; kinase still bound, per cent of control (MAP2K6 (human)): 77%; kinase still bound, per cent of control (PRKCE (human)): 59%; kinase still bound, per cent of control (WNK3 (human)): 90%; kinase still bound, per cent of control (CSNK2A1 (human)): 52%; kinase still bound, per cent of control (INSR (human)): 57%; kinase still bound, per cent of control (RPS6KA3 KD2 (human)): 100%; kinase still bound, per cent of control (LTK (human)): 100%; kinase still bound, per cent of control (ERBB2 (human)): 61%; kinase still bound, per cent of control (ABL1 (human)): 54%; kinase still bound, per cent of control (CSK (human)): 100%; kinase still bound, per cent of control [3]: 70%; kinase still bound, per cent of control (TXK (human)): 100%; kinase still bound, per cent of control [4]: 0.3%; kinase still bound, per cent of control (CDK15 (human)): 58%; kinase still bound, per cent of control (MUSK (human)): 100%; kinase still bound, per cent of control (TNK1 (human)): 33% |
| O=C1NC(=O)/C(=C/c2ccc3nccc(-c4ccncc4)c3c2)S1 | 60% | 85% | 20% | 6.2% | 100% | 70% | 75% | 67% | 96% | 81% | 4.2% | 43% | 73% | 100% | 90% | 78% | 12% | 100% | 6.4% | 83% | kinase still bound, per cent of control [5]: 76%; kinase still bound, per cent of control (CAMK2D (human)): 10%; kinase still bound, per cent of control (LATS1 (human)): 80%; kinase still bound, per cent of control (MAP2K6 (human)): 69%; kinase still bound, per cent of control (PRKCE (human)): 38%; kinase still bound, per cent of control (WNK3 (human)): 86%; kinase still bound, per cent of control (CSNK2A1 (human)): 7.9%; kinase still bound, per cent of control (INSR (human)): 77%; kinase still bound, per cent of control (RPS6KA3 KD2 (human)): 70%; kinase still bound, per cent of control (LTK (human)): 22%; kinase still bound, per cent of control (ERBB2 (human)): 66%; kinase still bound, per cent of control (CSK (human)): 80%; kinase still bound, per cent of control [3]: 84%; kinase still bound, per cent of control (TXK (human)): 79%; kinase still bound, per cent of control [4]: 0%; kinase still bound, per cent of control (CDK15 (human)): 9.6%; kinase still bound, per cent of control (MUSK (human)): 92%; kinase still bound, per cent of control (TNK1 (human)): 52% |
